Entries after “also recorded” stand apart in the source; their conditions may differ. Structures can show the parent of a compound that is named as a salt.

The conditions of data set [1]: cited from earlier work.
For data set [2] the following is noted: in vivo; cited from earlier work.
Data set [3] deals with A549, H23, H2122 and H1975 NSCLC cells. Kind of data set: MTS cell viability/proliferation assay in NSCLC cell lines, 72 h. It counts as cell-based, human. As for the experimental part: FIG. 5. Parthenolide analogues JD201-JD210 suppress human lung tumor cell proliferation in vitro. A549, H23, H2122 and H1975 NSCLC cells were treated with increasing concentrations of drugs (0.1-100 μM). After 72 h cell viability was assessed by MTS assay. Viable cells are expressed as percentage of vehicle control. P<0.01 (**), versus control group, P<0.05 (*), versus control group. Natural occurring parthenolide (PTL), parthenolide analogues JD201 (DMAPT)-JD210. Parthenolide analogues inhibit female (H1975, H2122) and male (H23, A549) NSCLC cell proliferation.
To determine the effect of parthenolide analogues in lung cancer cell proliferation we tested two male (A549, H23) and two female (H2122, H1975) lung cancer cell lines with increasing concentrations of parthenolide analogues (0.1, 1, 10 and 100 μM) for 72 hours.

Data set [4] has as its system NF-κB/p65 phosphorylation. Kind of data set: Western blot of phospho-NF-κB/p65 in H23 cells. The settings on record: for phosphorylation of the p65 subunit of NF-κB: 10 μM, 60 min (FIG. 7); for phosphorylation of NF-κB/p65: 10 µM, 60 min (FIG. 13). The class given is cell-based, human. As for the experimental part:
FIG. 7. […] After 60 min Western blot were performed using anti-phospho-NF-κB/p65 antibody (Cell Signaling Technology #3031). Membranes were stripped and re-probed with antibody against total NF-κB/p65 (CST #3037).
After 60 min, Western blots were done using anti-phospho-NFκB/p65 antibody (Cell Signaling).
Upon confirming that parthenolide analogues can inhibit NSCLC cell proliferation, induce cell death and enhance the cytotoxicity of chemotherapy, we began to investigate potential cellular mechanisms that may underlie this process. For example, we used Western Blot methods to determine phosphorylation of the p65 subunit of NF-κB. H23 cells were incubated in the presence of vehicle control or 10 μM concentration of the parthenolide derivatives (JD 201, 202, 203, 204) for 60 min. After treatment, cells were collected and homogenized in lysis buffer. Extracts were electrophoresed on 4-20% gradient SDS-PAGE gels and transferred to nitrocellulose membranes. Blots were probed with anti-phospho-NF-κB/p65 and NF-κB/p65 for a loading control.

Data set [5] concerns MCF-7/HER2 cells. Description: MCF-7/HER2 xenografts in nude mice. The class given is in vivo. An excerpt: (§1) Conversion of estrogen-sensitive to -resistant tumors after the start of antiestrogen therapy is a major problem in the clinic (65). This resistance may be due, in part, to enhanced growth factor signaling, a cellular response to antiestrogen treatment that eventually results in increased phosphorylation of ER and/or coactivators, such as AIB1(54). Convergence between growth factor and estrogen signaling may elicit a synergistic feed-forward circuit with more robust cell growth (FIG. 10). It is notable that tumors with HER-2 overexpression tend to respond poorly to antiestrogens (69-72). […] Such clinical data offer further evidence of the biologic interaction between HER-2 and ER. To evaluate the relation of HER-2 to clinical antiestrogen resistance, we used estrogen-responsive, MCF-7 cells with defined levels of ER that were transfected with HER-2 gene (MCF-7/HER-2). MCF-7 cells+HER-2 overexpression and parent MCF-7 cells were grown as xenografts in nude mice as before (28) (FIGS. 11A-11B).
(§2) FIGS. 11A-11B. Overexpression of HER2 gene in MCF7 cells elicits resistance to endocrine therapy in vivo; FIG. 11A: Antiestrogen sensitivity of MCF7 parent cells without HER2 overexpression (control) in vivo. MCF7 cells were inoculated SQ in ovari-ectomized, nude mice primed with estrogen. […] Tumor volumes were recorded. […]

Data set [6] concerns MCF7 parent cells without HER2 overexpression. Kind of data set: MCF-7 parent xenografts in nude mice. It counts as in vivo. Conditions: 28 d treatment.
Excerpt: as §1, §2

Data set [7] concerns MCF-7/TAMR breast cancer cells. Kind of data set: Proliferation of tamoxifen-resistant MCF-7/TMR (TAM-R) cells. The class given is cell-based, human. Conditions: absence of parthenolide analogues. The procedure:
MCF-7/CON cells are tamoxifen-sensitive, while MCF-7/HER2 and MCF-7/TMR cells are known to be tamoxifen-resistant (28,61,66,67). Except for TMR (64,68), cells were routinely cultured in RPMI 1640 media with 10% heat-inactivated FBS (28,64,66). For E2-free conditions, media were changed 48 h before studies to phenol-red free RPMI 1640 with 1% dextran-coated, charcoal-treated (DCC) FBS. TMR cells were derived by long-term continuous exposure of cells to 10^−7 M 4-hydroxy-tamoxifen by established methods (64,68) and were maintained with 10^−7 M 4-hydroxytamoxifen in medium. Levels of ERα and HER2 expression in these several cell lines were determined by use of Western blot methods.
Assays for Tumor Cell Proliferation. Breast tumor cells were be grown in RPMI 1640 media with 10% heat-inactivated FBS (except for TMR and TZR cells as noted above). For estrogen-free conditions, medium were changed 48 h before studies to phenol-red free RPMI 1640 with 1% dextran-coated, charcoal-treated (DCC) FBS, then treated with selected reagents. Cell counts and viability tests (Trypan blue) will be done every 24 hr for […]. After 48-72 hr, proliferation was assessed by cell counts.

Data set [8] concerns A549 NSCLC cells. Kind of data set: ALDH+/CD133+ cancer stem/progenitor cell subset by Aldefluor/CD133 FACS. The class given is cell-based, human. Conditions: 10 nM estradiol-17b, P<0.001. The procedure: FIG. 1. Isolation of cancer stem/progenitor cell subsets as determined by assay of specific biomarkers, ALDH and CD133, and effect of estrogen exposure. NSCLC cells (A549) were treated in vitro with control (CON), 10 nM estradiol-17b (E2), or E2 in the presence of […] fulvestrant. Thereafter, aldehyde dehydrogenase (ALDH) activity and CD133 expression were analyzed by established double labeling methods using an Aldefluor Assay Kit and CD133 antibody, respectively, followed by FACS sorting. The numbers of ALDH+/CD133+ lung tumor cells, representing a putative CSC subset, was expressed as a percent of total lung tumor cells for each treatment group. […] Experiments were done in triplicate.
Substantial evidence has accumulated to support the role of a small subset of self-renewing cells that sustain malignant growth. […] Based on these findings, we identified CD133+/ALDH+ tumor stem/progenitor cells from human lung cancer cells in vitro using an Aldefluor assay (to isolate ALDH+ cells) (5,7,8) in combination with labeled anti-CD133 antibodies (3,10) followed by fluorescence-activated cell sorting analysis (11). In brief, ALDH activity and CD133 expression were analyzed by established double labeling methods using the Aldefluor Assay Kit (Stem Cell Technologies) and CD133/1 antibody (Miltenyi) according to the manufacturer's instructions. […] Data were analyzed using FlowJo (Tree Star Inc.). […]

Take `C/C1=C\CC[C@@]2(C)O[C@H]2[C@H]2OC(=O)[C@@H](CN(C)C)[C@@H]2CC1` [JD201, (1aR,7aS,8R,10aS,Z)-8-((Dimethylamino)methyl)-1a,5-dimethyl-2,3,6,7,7a,8,10a,10b-octa-hydrooxireno[2′,3′:9,10]cyclodeca[1,2-b]furan-9(1aH)-one, fumaric acid salt]: the plasma concentrations in data set [1] (after oral administration) was 40 µM. In data set [1] (oral), the oral bioavaliability is on record as 70%. Moreover, the toxicology profile entry in data set [2] is “acceptable”.
Consider `C/C1=C/CC[C@@]2(C)OC2[C@H]2OC(=O)[C@@H](CNCc3ccccn3)[C@@H]2CC1.O=C(O)/C=C/C(=O)O` (stereo partly drawn) [JD202, (1aR,7aS,8R,10aS,Z)-1a,5-Dimethyl-8-(((pyridin-2-ylmethyl)amino)methyl)-2,3,6,7,7a,8, 10a,10b-octahydrooxireno[2′,3′:9,10]cyclodeca[1,2-b]furan-9(1aH)-one, fumaric acid salt], for which the “growth inhibition at 10 μM” value in data set [3] (10 μM, A549, H23, H2122, H1975) is “Significant growth inhibition”. Besides, in data set [3] (A549, H23, H2122, H1975), the “growth inhibition at 100 μM” value is “Significant growth inhibition”. Also, the “inhibitory activity relative to other analogues” value in data set [3] (FIG. 5, 0.1-100 μM) is “greater inhibitory activity than compounds 205 and 207”. Besides, in data set [4], the “phosphorylation of the p65 subunit of NF-κB” value is recorded as “reduced phosphorylation of the p65 subunit of NF-κB; also recorded: inhibit phosphory-lation of NF-κB/p65” and the “phosphorylation of NF-κB/p65” value is recorded as “inhibit phosphorylation of NF-κB/p65”.
For the compound `CON(C)C[C@@H]1C(=O)O[C@H]2[C@H]1CC/C(C)=C/CC[C@@]1(C)O[C@@H]21` [JD204, (1aR,7aS,8R,10aS,Z)-8-((Methoxy(methyl)amino)methyl)-1a,5-dimethyl-2,3,6,7,7a,8,10a, 10b-octahydrooxireno[2′,3′:9,10]cyclodeca[1,2-b]furan-9(1aH)-one, fumaric acid salt], in data set [4], the “phosphorylation of the p65 subunit of NF-κB” value was “reduced phosphorylation of the p65 subunit of NF-κB; also recorded: inhibit phosphory-lation of NF-κB/p65” and the “phosphorylation of NF-κB/p65” value is given as “inhibit phosphorylation of NF-κB/p65”.
Regarding `C/C1=C\CC[C@@]2(C)O[C@H]2[C@H]2OC(=O)/C(=C\N3CCCCC3)[C@@H]2CC1` [JD205, (1aR,4Z,7aS,8Z,10aS)-1a,5-Dimethyl-8-(piperidin-1-ylmethylene)-2,3,6,7,7a,8,10a,10b-octahydrooxireno[2′,3′:9,10]cyclodeca[1,2-b]furan-9(1aH)-one], in data set [3] (A549, H23, H2122, H1975), the “growth inhibition at 100 μM” value is “Significant growth inhibition”. In data set [4], the “phosphorylation of the p65 subunit of NF-κB” value is on record as “inhibit phosphory-lation of NF-κB/p65” and the “phosphorylation of NF-κB/p65” value was “inhibit phosphorylation of NF-κB/p65”.
As to `C/C1=C\CC[C@@]2(C)O[C@H]2[C@H]2OC(=O)[C@@H](CN(C)O)[C@@H]2CC1` [JD207, (1aR,7aS,8R,10aS,Z)-8-((Hydroxy(methyl)amino)methyl)-1a,5-dimethyl-2,3,6,7,7a,8,10a, 10b-octahydrooxireno[2′,3′:9,10]cyclodeca[1,2-b]furan-9(1aH)-one, fumaric acid salt], in data set [3] (A549, H23, H2122, H1975), the “growth inhibition at 100 μM” value is listed as “Significant growth inhibition”.
In the case of `C[C@]12CC[C@@H]3c4ccc(O)cc4C[C@@H](CCCCCCCCC[S+]([O-])CCCC(F)(F)C(F)(F)F)[C@H]3[C@@H]1CC[C@@H]2O` (stereo partly drawn) [fulvestrant], the “antiestrogen sensitivity of MCF-7/HER-2 xenografts” value in data set [5] is given as “partial sensitivity”. Also, the “growth of MCF-7 parent xenografts” value in data set [6] is listed as “markedly suppressed”.
For the compound `CC/C(=C(\c1ccccc1)c1ccc(OCCN(C)C)cc1)c1ccccc1` [tamoxifen], the “antiestrogen sensitivity of MCF-7/HER-2 xenografts” value in data set [5] was “insensitive”. Also, the “growth of MCF-7 parent xenografts” value in data set [6] is “markedly suppressed”. In data set [7], the “response of MCF-7/TMR cells to tamoxifen alone” value is recorded as “resistant”.
For the compound estradiol-17b, the “proportion/number of ALDH+/CD133+ cancer stem/progenitor cells” value is “increases the proportion of cancer stem/progenitor cell subsets” in data set [8] and “modest increase in the numbers of CSC” in data set [8] (listed as estrogen).

The values above are taken from US9512138B2, “Compositions and methods for treating cancer” (The Regents of the University of California, priority 2012, dated 2016).
